These results are taken from patent US20080248134A1, “Oral compositions, use and combinations of N-[2-(dimethylamino)ethyl]-2,6 dimethyl-1-oxo-1,2-dihydrobenzo[b]-1,6-naphthyridine-4-carboxamide and closely related analogues thereof” (Auckland Uniservices Limited, priority 2005, published 2008).

Experiment [1] has as its system JLD. Nature of the experiment: In vitro cell proliferation assay, continuous drug exposure. It counts as cell-based. Particulars: Homo sapiens; JLD (reduced topoisomerase II), continuous drug exposure 3-5 days. The text has this:
(§1) The results with the JLA and JLD lines, which have reduced topoisomerase II content as compared to the parental Jurkat line, indicate that the IC50 value of the compound is increased with decreased topoisomerase content. This is also the case for etoposide, amsacrine, DACA and doxorubicin.

The test system of experiment [2] is JLA. The experiment is described as above. Type of experiment: cell-based. Particulars: Homo sapiens; JLA (reduced topoisomerase II), continuous drug exposure 3-5 days.
Source text: as §1

Another experiment concerns Jurkat. Described as above. Type of experiment: cell-based. Particulars: Homo sapiens, continuous drug exposure 3-5 days.
Source text: as §1

The next experiment concerns HCT116p53+. The experiment is described as above. It counts as cell-based. The conditions noted are these: Homo sapiens, continuous drug exposure 3-5 days.
Source text: as §1

The test system of a further experiment is HCT116p53−. The description is as above. Type of experiment: cell-based. Particulars: Homo sapiens, continuous drug exposure 3-5 days.
Source text: as §1

Experiment [3] relates to survivin in HCT116 (TP53 wild type). Nature of the experiment: Inhibition of survivin production, western blotting. It counts as cell-based, human. Particulars: various concentrations, 24 hours. On the procedure: Survivin is a protein that is expressed selectively in many types of cancer cells and which is known to be associated with resistance to apoptosis (Zaffaroni N and Daidone M G. Survivin expression and resistance to anticancer treatments: perspectives for new therapeutic interventions. Drug Resistance Updates: Reviews and Commentaries in Antimicrobial and Anticancer Chemotherapy. 2002 5(2):65-72). […] Extracts were prepared, proteins were separated by electrophoresis and survivin expression was determined by western blotting.

The test system of experiment [4] is JLD. Nature of the experiment: In vitro cell survival assay. It counts as cell-based, human. Particulars: resistant line JLD, 0.4 μM, one hour exposure. The procedure:
(§2) Two HCT116 human colon carcinoma lines, one with TP53 wild type status and one with TP53 mutant status, were exposed to the compound of Formula II for 6 hours. The cells were washed free of drug and surviving cells were measured by clonogenic assay. The concentration for maximal reduction of cell survival was 1% for p53 wild-type cells and 5% for p53 mutant cells. The cytotoxicity of the compound of the present invention was also tested in three Jurkat leukaemia lines, two of which, JLA and JLD, are resistant to topoisomerase inhibitors because of low cellular levels of topoisomerase II.

Experiment [5] deals with JLA. Nature of the experiment: In vitro cell survival assay. Type of experiment: cell-based, human. The conditions noted are these: resistant line JLA, 0.4 μM, one hour exposure. On the procedure:
as §2

For the next experiment, the system named is wild-type Jurkat line. As to the kind of experiment: In vitro cell survival assay. It counts as cell-based, human. Particulars: 0.4 μM, one hour exposure. On the procedure:
as §2

The structures appear in SMILES notation.

Take `Cc1cccc2cc3c(=O)n(C)cc(C(=O)NCCN(C)C)c3nc12` [Formula II, N-[2-(dimethylamino)ethyl]-2,6 dimethyl-1-oxo-1,2-dihydrobenzo[b]-1,6-naphthyridine-4-carboxamide]: the half-maximal inhibitory concentration (IC50) came to 53 nM in the experiment on JLD [1]; 38 nM in the experiment with JLA [2]; 6.7 nM in the experiment on Jurkat; 8.6 nM in the experiment on HCT116p53+; 11 nM with HCT116p53−. The survivin expression entry in experiment [3] is reported as “suppress survivin production”. Further, the results for the survival with JLD [4], with JLA [5] and with wild-type Jurkat line were 100%, 100% and 28%, respectively.
